Assay results published in US20230382869A1, “Phenyl-3,4-dihydroisoquinolin-2(1h)-yl-ethan-1-one derivatives as dopamine d1receptor positive allosteric modulators” (Eli Lilly and Company, priority 2020, published 2023).

Molecular target: CYP3A4 (Homo sapiens (Human), UniProt P08684)
Assay: Calculation of fraction of compound cleared through CYP3A4 metabolism (fmCYP3A4)
Conditions: fmCYP × fm3A4_RCP (worst-case fm3A4_RCP = 1)
Excerpt: The fraction of overall clearance of a drug via oxidative metabolism by the cytochrome P450 (CYP) is an important indication for potential victim drug-drug interaction mediated adverse effects. (see generally Ogu, Chris C., and Maxa, Jan L., Drug interactions due to cytochrome P450, BUMC Proceedings 2000; 13:421-423.) The greater fraction of overall clearance for a given drug that goes though a CYP oxidation pathway, particularly exclusively through a single CYP, as for example CYP3A4, the greater the potential that the drug may be found susceptible to undesired victim drug-drug interactions when used in therapy. To determine the fmCYP3A4 (the fraction of metabolism via CYP3A4), the fraction of P450-mediated oxidation, (fmCYP) is first determined in human hepatocytes. The relative contribution of CYP3A4 mediated oxidation (fmCYP3A4_RCP) over other P450 s is then determined using a recombinant CYP phenotyping assay (RCP). The fmCYP3A4 is calculated using the following equation:
fmCYP3A4=fmCYP×fmCYP3A4_RCP
The renal and biliary excretion of test compounds is tested in bile-duct cannulated dogs essentially according to Burkey J L, et al. (2002) Disposition of LY333531, a selective protein kinase C beta inhibitor, in the Fischer 344 rat and beagle dog. Xenobiotica 32:1045-1052. […] The fraction of compound cleared through CYP3A4 metabolism is calculated using the equation below: […]

C[C@H]1c2ccc(F)c(CCC(C)(C)O)c2C[C@H](CO)N1C(=O)Cc1c(F)cccc1Cl [Example 7, 2-(2-chloro-6-fluoro-phenyl)-1-[(1S,3R)-6-fluoro-3-(hydroxymethyl)-5-(3-hydroxy-3-methyl-butyl)-1-methyl-3,4-dihydro-1H-isoquinolin-2-yl]ethanone]
fmCYP3A4: 0.322
